# Organism: Rattus norvegicus
# Experiment: DrugMatrix - Regimen: Daily Repeat
# Type: toxicity, organism-based, Sprague-Dawley
# Parameters: regimen Daily Repeat, gender Male, age 6-8 weeks
# Conditions: in vivo, po, route oral GAVAGE, vehicle .5 % CMC; for CARBON DIOXIDE / CHLORIDE / CHOLESTEROL / CREATINE PHOSPHOKINASE / CREATININE / GLUCOSE / LACTATE DEHYDROGENASE / LIPASE / PHOSPHORUS / POTASSIUM / SODIUM / TOTAL BILIRUBIN / TOTAL PROTEIN / URIC ACID / ALANINE AMINOTRANSFERASE / ALBUMIN / ALKALINE PHOSPHATASE / ASPARTATE AMINOTRANSFERASE / BLOOD UREA NITROGEN: tissue Plasma; for ABSOLUTE BASOPHIL / ABSOLUTE EOSINOPHIL / ABSOLUTE LYMPHOCYTE / ABSOLUTE MONOCYTE / ABSOLUTE SEGMENTED NEUTROPHIL / BASOPHIL / EOSINOPHIL / ERYTHROCYTE COUNT / HEMATOCRIT / HEMOGLOBIN / LEUKOCYTE COUNT / LYMPHOCYTE / MEAN CORPUSCULAR HEMOGLOBIN / MEAN CORPUSCULAR HEMOGLOBIN CONCENTRATION / MEAN CORPUSCULAR VOLUME / MONOCYTE / NEUTROPHIL / NUCLEATED RED BLOOD CELLS / PLATELET COUNT: tissue Blood
# [1] = 7 mg/kg, 120 h, dose level Low, time 5 day
# [2] = 70 mg/kg, 72 h, dose level High, time 3 day
# [3] = 70 mg/kg, 120 h, dose level High, time 5 day
# [4] = 140 mg/kg, 72 h, dose level Low, time 3 day
compound,measurement,setting,value
NC1=NC(=O)C(c2ccccc2)O1 (configuration not stated) [PEMOLINE],CARBON DIOXIDE,[1],34.67 mmol/L
same,CHLORIDE,[1],103 MEQ/L
same,CHOLESTEROL,[1],67.67 mg/dL
same,CREATINE PHOSPHOKINASE,[1],147.33 u/L
same,CREATININE,[1],0.12 mg/dL
same,GLUCOSE,[1],151.67 mg/dL
same,LACTATE DEHYDROGENASE,[1],92.33 u/L
same,LIPASE,[1],9 u/L
same,PHOSPHORUS,[1],13.57 mg/dL
same,POTASSIUM,[1],6.78 MEQ/L
same,SODIUM,[1],146.93 MEQ/L
same,TOTAL BILIRUBIN,[1],0.17 mg/dL
same,TOTAL PROTEIN,[1],5.77 G/DL
same,URIC ACID,[1],1.33 mg/dL
same,ABSOLUTE BASOPHIL,[2],0 CELLS/uL
same,ABSOLUTE EOSINOPHIL,[2],0 CELLS/uL
same,ABSOLUTE LYMPHOCYTE,[2],14699.33 CELLS/uL
same,ABSOLUTE MONOCYTE,[2],90.67 CELLS/uL
same,ABSOLUTE SEGMENTED NEUTROPHIL,[2],1243.33 CELLS/uL
same,BASOPHIL,[2],0%
same,EOSINOPHIL,[2],0%
same,ERYTHROCYTE COUNT,[2],5.56 x10E6/uL
same,HEMATOCRIT,[2],35.23%
same,HEMOGLOBIN,[2],14.27 G/DL
same,LEUKOCYTE COUNT,[2],16.03 x10E3/uL
same,LYMPHOCYTE,[2],91.33%
same,MEAN CORPUSCULAR HEMOGLOBIN,[2],25.7 pg
same,MEAN CORPUSCULAR HEMOGLOBIN CONCENTRATION,[2],40.47 G/DL
same,MEAN CORPUSCULAR VOLUME,[2],63.43 fL
same,MONOCYTE,[2],0.67%
same,NEUTROPHIL,[2],8%
same,NUCLEATED RED BLOOD CELLS,[2],0 /100WBC
same,PLATELET COUNT,[2],1042 x10E3/uL
same,ALANINE AMINOTRANSFERASE,[2],48 u/L
same,ALBUMIN,[2],4.17 G/DL
same,ALKALINE PHOSPHATASE,[2],389 u/L
same,ASPARTATE AMINOTRANSFERASE,[2],92.67 u/L
same,BLOOD UREA NITROGEN,[2],15.33 mg/dL
same,CARBON DIOXIDE,[2],33 mmol/L
same,CHLORIDE,[2],100.67 MEQ/L
same,CHOLESTEROL,[2],58.33 mg/dL
same,CREATINE PHOSPHOKINASE,[2],270 u/L
same,CREATININE,[2],0.15 mg/dL
same,GLUCOSE,[2],154 mg/dL
same,LACTATE DEHYDROGENASE,[2],211.33 u/L
same,LIPASE,[2],8.67 u/L
same,PHOSPHORUS,[2],13.6 mg/dL
same,POTASSIUM,[2],6.81 MEQ/L
same,SODIUM,[2],144.87 MEQ/L
same,TOTAL BILIRUBIN,[2],0.1 mg/dL
same,TOTAL PROTEIN,[2],5.8 G/DL
same,URIC ACID,[2],1.6 mg/dL
same,ABSOLUTE BASOPHIL,[3],0 CELLS/uL
same,ABSOLUTE EOSINOPHIL,[3],0 CELLS/uL
same,ABSOLUTE LYMPHOCYTE,[3],16458 CELLS/uL
same,ABSOLUTE MONOCYTE,[3],255.33 CELLS/uL
same,ABSOLUTE SEGMENTED NEUTROPHIL,[3],886.67 CELLS/uL
same,BASOPHIL,[3],0%
same,EOSINOPHIL,[3],0%
same,ERYTHROCYTE COUNT,[3],5.79 x10E6/uL
same,HEMATOCRIT,[3],36.57%
same,HEMOGLOBIN,[3],14.87 G/DL
same,LEUKOCYTE COUNT,[3],17.6 x10E3/uL
same,LYMPHOCYTE,[3],93%
same,MEAN CORPUSCULAR HEMOGLOBIN,[3],25.7 pg
same,MEAN CORPUSCULAR HEMOGLOBIN CONCENTRATION,[3],40.63 G/DL
same,MEAN CORPUSCULAR VOLUME,[3],63.23 fL
same,MONOCYTE,[3],1.67%
same,NEUTROPHIL,[3],5.33%
same,NUCLEATED RED BLOOD CELLS,[3],0.33 /100WBC
same,PLATELET COUNT,[3],1251.67 x10E3/uL
same,ALANINE AMINOTRANSFERASE,[3],59.67 u/L
same,ALBUMIN,[3],4.33 G/DL
same,ALKALINE PHOSPHATASE,[3],378.67 u/L
same,ASPARTATE AMINOTRANSFERASE,[3],96.33 u/L
same,BLOOD UREA NITROGEN,[3],18.67 mg/dL
same,CARBON DIOXIDE,[3],33.33 mmol/L
same,CHLORIDE,[3],100.33 MEQ/L
same,CHOLESTEROL,[3],64 mg/dL
same,CREATINE PHOSPHOKINASE,[3],276.33 u/L
same,CREATININE,[3],0.23 mg/dL
same,GLUCOSE,[3],139 mg/dL
same,LACTATE DEHYDROGENASE,[3],306.33 u/L
same,LIPASE,[3],10.67 u/L
same,PHOSPHORUS,[3],12.97 mg/dL
same,POTASSIUM,[3],6.82 MEQ/L
same,SODIUM,[3],144.9 MEQ/L
same,TOTAL BILIRUBIN,[3],0.2 mg/dL
same,TOTAL PROTEIN,[3],6.03 G/DL
same,URIC ACID,[3],1.9 mg/dL
same,BASOPHIL,[4],0%
same,EOSINOPHIL,[4],1%
same,ERYTHROCYTE COUNT,[4],6.27 x10E6/uL
same,HEMATOCRIT,[4],38.3%
same,HEMOGLOBIN,[4],14.3 G/DL
same,LEUKOCYTE COUNT,[4],13.1 x10E3/uL
same,LYMPHOCYTE,[4],92%
same,MEAN CORPUSCULAR HEMOGLOBIN,[4],22.8 pg
same,MEAN CORPUSCULAR HEMOGLOBIN CONCENTRATION,[4],37.3 G/DL
same,MEAN CORPUSCULAR VOLUME,[4],61.1 fL
same,MONOCYTE,[4],1%
same,NEUTROPHIL,[4],6%
same,PLATELET COUNT,[4],1285 x10E3/uL
same,ALANINE AMINOTRANSFERASE,[4],34.5 u/L
same,ALBUMIN,[4],3.25 G/DL
same,ALKALINE PHOSPHATASE,[4],286.5 u/L
same,ASPARTATE AMINOTRANSFERASE,[4],93.5 u/L
same,BLOOD UREA NITROGEN,[4],15.5 mg/dL
same,CHLORIDE,[4],105.5 MEQ/L
same,CHOLESTEROL,[4],58.5 mg/dL
same,CREATINE PHOSPHOKINASE,[4],130 u/L
same,CREATININE,[4],0.75 mg/dL
same,GLUCOSE,[4],137.5 mg/dL
same,PHOSPHORUS,[4],12.65 mg/dL
same,POTASSIUM,[4],7.95 MEQ/L
same,SODIUM,[4],148 MEQ/L
same,TOTAL PROTEIN,[4],5.3 G/DL

# Reference: ChEMBL document CHEMBL3885881, “DrugMatrix”
